From US20230322724A1, “HETEROCYCLIC COMPOUNDS AS CBP/EP300 BROMODOMAIN INHIBITORS” (AURIGENE ONCOLOGY LIMITED, priority 2020, published 2023)

Biological target: T1, recombinant CREBBP bromodomain (Homo sapiens, UniProt Q92793)
T1 construct: recombinant CREBBP bromodomain obtained from BPS Bioscience, USA; purchased BPS Bioscience, USA
Test: CBP TR-FRET displacement assay
Format: binding
Conditions: compound at 10 μM
Protocol: The potency of compounds to inhibit CREBBP enzyme was tested in a TR-FRET displacement assay using recombinant CREBBP bromodomain obtained from BPS Bioscience, USA. The assay buffer was 50 mM HEPES (pH 7.5), 50 mM NaCl, 0.008% Brij 35, 0.01% BSA, 1 mM TCEP. 50 nM of CREBBP & 500 nM of Biotinylated ligand was incubated at room temperature for 30 minutes, the reaction was initiated by adding pre-incubated enzyme ligand mixture to the test compounds. After 60 min incubation, the reaction was stopped by the addition of stop mix containing 1 nM of LANCE Europium-anti-6xHis antibody (Perkin Elmer, USA) and 40 nM of Sure Light Allophycocyanin-Streptavidin (Perkin Elmer, USA). Fluorescence emission of the samples at 665 and 615 nm were measured at an excitation of 340 nm and their ratio was plotted against the compound concentrations to generate dose-response curve. The percent inhibition of the test compounds is calculated using the ratio of enzyme activity controls.
elected compounds of the present invention were screened in the above-mentioned assay procedures and IC50 values were determined by fitting the dose-response data to sigmoidal curve fitting equation using Graph pad prism software V7.

T1 sequence (Q92793 1085-1192 limits assumed): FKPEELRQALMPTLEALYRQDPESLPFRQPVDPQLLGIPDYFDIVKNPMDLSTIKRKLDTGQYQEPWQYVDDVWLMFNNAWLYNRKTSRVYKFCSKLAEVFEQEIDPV

Row | inhibition at 10 µM [%] | Structure (SMILES)
1 | 90 | CCc1cc2c(N3CCN(C)c4cc(-c5cnn(C)c5)c(C#N)cc43)cccc2[nH]c1=O [Example 50]
2 | 91 | Cc1cc2c(N3CCN(C)c4cc(-c5cnn(C)c5)c(CO)cc43)cccc2[nH]c1=O [Example 58, 5-(7-(Hydroxymethyl)-4-methyl-6-(1-methyl-1H-pyrazol-4-yl)-3,4-dihydroquinoxalin-1(2H)-yl)-3-methylquinolin-2(1H)-one]
3 | 25 | Cc1cc2c(N3CCN(C4CCOCC4)c4ccccc43)cccc2n(C)c1=O [Example 78, 1,3-Dimethyl-5-(4-(tetrahydro-2H-pyran-4-yl)-3,4-dihydroquinoxalin-1(2H)-yl)quinolin-2(1H)-one]
4 | 27 | COc1cc(N2CCN(C)c3ccc(S(C)(=N)=O)cc32)c2cc(C)c(=O)n(C)c2c1 (stereo not shown) [Example 101]
5 | 46 | COc1cc(N2CCN(C)c3cc(N4CCCCC4=O)ncc32)c2cc(C)c(=O)n(C)c2c1 [Example 126]

Same assay, conditions: compound at 10 μM, 10 µM

Row | % Inhibition (10 μM) [%] | Structure (SMILES)
6 | 100 | Cc1cc2c(N3CCN(C)c4cc(-c5cnn(C)c5)c(C#N)cc43)cc(OCC3CCCN(C)C3)cc2n(C)c1=O (single isomer, unassigned) [Example 248, 4-(1,3-Dimethyl-7-((1-methylpiperidin-3-yl)methoxy)-2-oxo-1,2-dihydroquinolin-5-yl)-1-methyl-7-(1-methyl-1H-pyrazol-4-yl)-1,2,3,4-tetrahydroquinoxaline-6-carbonitrile]

Same assay, conditions: dose-response, read-out: IC50 (group A, B, C)

Row | IC50 [nM] | Structure (SMILES)
7 | > 10 | COc1cc(N2CCN(C)c3ccc([S+](C)[O-])cc32)c2cc(C)c(=O)n(C)c2c1 (single isomer, unassigned) [Example 250]
8 | < 50 | COc1cc(N2CCN(C)c3cc(-c4ccncc4)c(C#N)cc32)c2cc(C)c(=O)n(C)c2c1 [Example 21]
9 | < 50 | COc1cc(N2CCN(C)c3cc(N4CCC(N(C)C)CC4)c(C#N)cc32)c2cc(C)c(=O)n(C)c2c1 [Example 22]
10 | > 10 | COc1cc(N2CCN(C)c3cc(N4CC(C)NC(C)C4)c(C#N)cc32)c2cc(C)c(=O)n(C)c2c1 (stereo not shown) [Example 24]
11 | < 50 | CNC(=O)N1CCN(c2cc3c(cc2C#N)N(c2cc(OC)cc4c2cc(C)c(=O)n4C)CCN3C)CC1 [Example 28]
12 | < 50 | COc1cc(N2CCN(C)c3cc(-c4cnn(C)c4)c(F)cc32)c2cc(C)c(=O)n(C)c2c1 [Example 30]
13 | < 50 | CCN1CCN(c2cc(OC)cc3c2cc(C)c(=O)n3C)c2cc(C#N)c(N3CCN(C(C)=O)CC3)cc21 [Example 32]
14 | < 50 | COC(=O)c1cc2c(cc1-c1cnn(C)c1)N(C)CCN2c1cc(OC)cc2c1cc(C)c(=O)n2C [Example 34]
15 | < 50 | Cc1cc2c(N3CCN(C)c4cc(-c5cnn(C)c5)c(C#N)cc43)cc(OCc3ncco3)cc2n(C)c1=O [Example 41]
16 | > 10 | Cc1cc2c(N3CCN(C)c4cc(C5=CCN(C)CC5)ccc43)cccc2n(C)c1=O [Example 44]
17 | < 50 | Cc1cc2c(N3CCN(C)c4cc(-c5cnn(C)c5)c(F)cc43)cc(N(C)C)cc2n(C)c1=O [Example 45]
18 | < 50 | Cc1cc2c(N3CCN(C)c4cc(-c5cnn(C)c5)c(C#N)cc43)cc(N3CCOCC3)cc2n(C)c1=O [Example 47]
19 | < 50 | CNC(=O)C1CCN(c2cc3c(cc2F)N(c2cc(N4CCOCC4)cc4c2cc(C)c(=O)n4C)CCN3C)CC1 [Example 49]
20 | < 50 | Cc1cc2c(N3CCN(C)c4cc(-c5cnn(C)c5)c(C#N)cc43)cncc2n(C)c1=O [Example 53]
21 | 51 to 100 | COc1cc(N2CC(=O)Nc3cc(-c4cnn(C)c4)c(F)cc32)c2cc(C)c(=O)n(C)c2c1 [Example 55]
22 | < 50 | COc1cc(N2CCN(C)c3cc(N4CCC(NC(C)=O)CC4)c(C#N)cc32)c2cc(C)c(=O)n(C)c2c1 [Example 56]
23 | 51 to 100 | Cc1cc2c(N3CCN(C)c4cc(-c5cnn(C)c5)c(CO)cc43)cccc2[nH]c1=O [Example 58, 5-(7-(Hydroxymethyl)-4-methyl-6-(1-methyl-1H-pyrazol-4-yl)-3,4-dihydroquinoxalin-1(2H)-yl)-3-methylquinolin-2(1H)-one]
24 | < 50 | COc1cc(N2CCN(C)c3cc(N4CCC(C(=O)NCCO)CC4)c(C#N)cc32)c2cc(C)c(=O)n(C)c2c1 [Example 59, 1-(7-Cyano-1-(7-methoxy-1,3-dimethyl-2-oxo-1,2-dihydroquinolin-5-yl)-4-methyl-1,2,3,4-tetrahydroquinoxalin-6-yl)-N-(2-hydroxyethyl)piperidine-4-carboxamide]
25 | < 50 | CC(=O)N1CCN(CCOc2cc(N3CCN(C)c4cc(-c5cnn(C)c5)c(C#N)cc43)c3cc(C)c(=O)n(C)c3c2)CC1 [Example 61, 4-(7-(2-(4-Acetylpiperazin-1-yl)ethoxy)-1,3-dimethyl-2-oxo-1,2-dihydroquinolin-5-yl)-1-methyl-7-(1-methyl-1H-pyrazol-4-yl)-1,2,3,4-tetrahydroquinoxaline-6-carbonitrile]
26 | 51 to 100 | COc1cc(N2CCN(C(C)=O)c3cc(-c4cnn(C)c4)c(C#N)cc32)c2cc(C)c(=O)n(C)c2c1 [Example 63, 1-acetyl-4-(7-methoxy-1,3-dimethyl-2-oxo-1,2-dihydroquinolin-5-yl)-7-(1-methyl-1H-pyrazol-4-yl)-1,2,3,4-tetrahydroquinoxaline-6-carbonitrile]
27 | > 10 | CCS(=O)(=O)N1CCN(c2cccc3c2cc(C)c(=O)n3C)c2ccc(-c3cnn(C)c3)cc21 [Example 74, 5-(4-(Ethylsulfonyl)-6-(1-methyl-1H-pyrazol-4-yl)-3,4-dihydroquinoxalin-1(2H)-yl)-1,3-dimethylquinolin-2(1H)-one]
28 | > 10 | CNC(=O)N1CCN(c2cccc3c2cc(C)c(=O)n3C)c2ccc(-c3cnn(C)c3)cc21 [Example 75, 4-(1,3-Dimethyl-2-oxo-1,2-dihydroquinolin-5-yl)-N-methyl-7-(1-methyl-1H-pyrazol-4-yl)-3,4-dihydroquinoxaline-1(2H)-carboxamide]

Row | IC50 [nM] | Structure (SMILES)
29 | < 50 | Cc1cc2c(N3CCN(C)c4nc(-c5cnn(C)c5)ncc43)cc(N3CCOCC3)cc2n(C)c1=O [Example 76, 1,3-Dimethyl-5-(8-methyl-2-(1-methyl-1H-pyrazol-4-yl)-7,8-dihydropteridin-5(6H)-yl)-7-morpholinoquinolin-2(1H)-one]
30 | > 10 | CNC(=O)c1ccc2c(c1)N(c1cc(OC)cc3c1cc(C)c(=O)n3C)CCN2C [Example 81]
31 | < 50 | COc1cc(N2CCN(C)c3ccc(-c4nn[nH]n4)cc32)c2cc(C)c(=O)n(C)c2c1 [Example 84, 7-Methoxy-1,3-dimethyl-5-(4-methyl-7-(2H-tetrazol-5-yl)-3,4-dihydroquinoxalin-1(2H)-yl)quinolin-2(1H)-one]
32 | > 10 | COc1cc(N2CC(=O)N(C)c3ccc(S(N)(=O)=O)cc32)c2cc(C)c(=O)n(C)c2c1 [Example 89]
33 | < 50 | COc1cc(N2CCN(C)c3cc(-c4cnn(C)c4)c(S(N)(=O)=O)cc32)c2cc(C)c(=O)n(C)c2c1 [Example 90]
34 | 51 to 100 | COc1cc(N2CCN(C)c3ccc(S(=O)(=O)N(C)C)cc32)c2cc(C)c(=O)n(C)c2c1 [Example 93, 4-(7-Methoxy-1,3-dimethyl-2-oxo-1,2-dihydroquinolin-5-yl)-N,N,1-trimethyl-1,2,3,4-tetrahydroquinoxaline-6-sulfonamide]
35 | > 10 | Cc1cc2c(N3CCN(C)c4ccc(S(N)(=O)=O)cc43)cc(OC(F)F)cc2n(C)c1=O [Example 97]
36 | 51 to 100 | COc1cc(N2CCN(C)c3ccc([S+](C)[O-])cc32)c2cc(C)c(=O)n(C)c2c1 (stereo not shown) [Example 99]
37 | < 50 | CC(=O)NS(=O)(=O)c1ccc2c(c1)N(c1cc(N3CC[C@@H](O)C3)cc3c1cc(C)c(=O)n3C)CCN2C [Example 105]
38 | < 50 | COc1cc(N2CCN(C)c3cc(C4CC4)c(S(=O)(=O)NC(C)=O)cc32)c2cc(C)c(=O)n(C)c2c1 [Example 109]
39 | < 50 | COc1cc(N2CCN(C)c3cc(C4=CCCC4)c(S(=O)(=O)NC(C)=O)cc32)c2cc(C)c(=O)n(C)c2c1 [Example 110]
40 | > 10 | COc1cc(N2CCN(C)c3ccc(S(=O)(=O)NC(=O)C(C)(C)C)cc32)c2cc(C)c(=O)n(C)c2c1 [Example 111]
41 | > 10 | COc1cc(N2CCN(C)c3cc(S(N)(=O)=O)ccc32)c2cc(C)c(=O)n(C)c2c1 [Example 114, 1-(7-Methoxy-1,3-dimethyl-2-oxo-1,2-dihydroquinolin-5-yl)-4-methyl-1,2,3,4-tetrahydroquinoxaline-6-sulfonamide]
42 | < 50 | Cc1cc2c(N3CCN(C)c4ccc(C#N)cc43)cccc2[nH]c1=O [Example 115, 1-Methyl-4-(3-methyl-2-oxo-1,2-dihydroquinolin-5-yl)-1,2,3,4-tetrahydroquinoxaline-6-carbonitrile]
43 | 51 to 100 | COc1cc(N2CCN(C)c3cc(C(F)(F)F)ncc32)c2cc(C)c(=O)n(C)c2c1 [Example 124]
44 | 51 to 100 | Cc1cc2c(N3CCN(C)c4cc(-c5cnn(C)c5)ncc43)cc(OCCN3CCOCC3)cc2n(C)c1=O [Example 128]
45 | < 50 | Cc1cc2c(N3CCN(C)c4cc(-c5ccsc5)ncc43)cc(N3CCOCC3)cc2n(C)c1=O [Example 140]
46 | 51 to 100 | Cc1cc2c(N3CCN(C)c4cc(S(=O)(=O)C(C)C)ncc43)cc(N3CCOCC3)cc2n(C)c1=O [Example 141]
47 | < 50 | Cc1cc2c(N3CCN(C)c4cc(-c5cnn(C)c5)ncc43)cc(C3CCOC3)cc2n(C)c1=O (stereo not shown) [Example 142]
48 | 51 to 100 | Cc1cc2c(N3CCN(C)c4cc(-c5cnn(C)c5)ncc43)cc(C3CCOCC3)cc2n(C)c1=O [Example 143]
49 | 51 to 100 | Cc1cc2c(N3CC(C)N(C)c4cc(-c5cnn(C)c5)ncc43)cc(N3CCOCC3)cc2n(C)c1=O (stereo not shown) [Example 144]
